Reference: patent US20240316059A1, “PEPTIDE DRUG CONJUGATES” (Oncopeptides AB, priority 2021, published 2024)

Columns and labels:
U937 = assay: In vitro cytotoxicity, U937 (Histiocytic Lymphoma); format: cell-based; conditions: Homo sapiens, U-937, 72 h, read-out: Cytotoxicity IC50, U937
Experimental: (§1) All cells were cultivated in RPMI medium 1640 (IX). All media was supplemented with 10 μg/μl penicillin/streptomycin, 10% heat inactivated FBS, 0.1 mM Sodium Pyruvate, 1×MEM NEAA (ThermoFisher) and 1 mM HEPES. The DERL-2 cells had higher FBS (20%) and 40 ng/mL IL-2 was added. hPBMCs were thawed and allowed to acclimatise overnight and then stimulated with 10 μg/mL PHA-M and 40 ng/mL IL-2 for 4 hours before being exposed to test compounds. All cells, except for hPBMCs, were grown to reach log phase before being exposed to the test compounds.
(§2) Test compounds were dissolved in 100% DMSO and added to a 384 assay plate. Additional DMSO was added to maintain the same final DMSO concentration (0.2%) in all wells. 25 μL cell suspension with a concentration of 100000 cells/mL was added to each well. The cells were cultured in a CO2 incubator at 37° C. for 72 h. Plates were equilibrated to room temperature for 30 minutes before adding 20 μL CellTiter-Glo® 2.0 (Promega) reagent to all wells. The plate was then allowed to stabilize for 20 minutes before recording the luminescence (Em filter 700 nm) in an Envision plate reader.

KMS-12-BM = assay: In vitro cytotoxicity, KMS-12-BM (Multiple Myeloma); format: cell-based; conditions: Homo sapiens, 72 h, read-out: Cytotoxicity IC50, KMS-12-BM
Experimental: as §1, §2

OPM-2 = assay: In vitro cytotoxicity, OPM-2 (Multiple Myeloma); format: cell-based; conditions: Homo sapiens, OPM-2, 72 h, read-out: Cytotoxicity IC50, OPM-2
Experimental: as §1, §2

SK-MM-1 = assay: In vitro cytotoxicity, SK-MM-1 (Plasma Cell Leukemia); format: cell-based; conditions: Homo sapiens, 72 h, read-out: Cytotoxicity IC50, SK-MM-1
Experimental: as §1, §2

HG-3 = assay: In vitro cytotoxicity, HG-3 (Chronic Lymphocytic Leukemia); format: cell-based; conditions: Homo sapiens, HG-3, 72 h, read-out: Cytotoxicity IC50, HG-3
Experimental: as §1, §2

SU-DHL-8 = assay: In vitro cytotoxicity, SU-DHL-8 (B-cell non-Hodgkin Lymphoma); format: cell-based; conditions: Homo sapiens, SU-DHL-8, 72 h, read-out: Cytotoxicity IC50, SU-DHL-8
Experimental: as §1, §2

Toledo = assay: In vitro cytotoxicity, Toledo (Diffuse Large B Cell Lymphoma); format: cell-based; conditions: Homo sapiens, 72 h, read-out: Cytotoxicity IC50, Toledo
Experimental: as §1, §2

[1] = In vitro cytotoxicity, BJ fibroblasts (normal cells); format: cell-based; conditions: human, CellTiter-Glo 2.0
Experimental: as §1, §2

[2] = In vitro cytotoxicity, human peripheral blood mononuclear cells; format: cell-based; conditions: CellTiter-Glo 2.0, stimulated with PHA-M and IL-2, read-out: Cytotoxicity IC50, hPBMC
Experimental: as §1, §2

MM.1S cells = assay: Cellular retention/efflux: intracellular and extracellular concentrations by LC-MS/MS; format: in vitro ADME, human
Experimental: Methods: MMA1S cells at 2×10^6 cells/mL were seeded at 250 μL per well in a 96-well plate. Cells were incubated in the presence of a test compound for 5, 15, and 60 min before pelleting cells by centrifugation at +4° C. for 5 min. Cell media was immediately harvested to a second plate and stored at −80° C. until further analysis. Pelleted cells were washed once with ice cold PBS before storage at −80° C. until further analysis.
Cells were lysed and protein in the media were precipitated using acetonitrile dimethylformamide, 9:1 containing internal standard. Samples were centrifuged and the supernatant was analyzed with LC-MS/MS (ACQUITY UPLC-Xevo TQ-S micro) to determine compound concentration.
Example compound 1, bendamustine and melphalan were used as test compounds.
Method: Method described in Biological example 3.
Example compounds 1, 2, 3, 4, 6, 7 and 10 were investigated. Intracellular metabolites are formed from all compounds tested. The compound used for cell treatment was metabolised to the ester-hydrolysed compound (here called Metabolite A) and to the amide-hydrolysed compound (called Metabolite B). The example compound structures and the structures of the two metabolites for the respective compounds were as shown in Table 4. The Metabolites B formed under the conditions tested were compounds with structure as Examples 17 and 18: […]

[3] = system: DNA prepared from MM.1S cells (nuclear HPRT and mitochondrial DNA); assay: Direct DNA damage, PCR amplification of treated DNA (HPRT and mtDNA primers); format: biochemical, human; conditions: 0.25 μM compound, 30 minutes, 37° C., 1 μg DNA
Method in brief: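 Genomic DNA isolated from MM.1S cells, 1 μg treated with 0.25 μM compound for 30 min at 37 °C, DMSO as control. Long-range PCR on 20 ng treated DNA yielding 10.4 kb (HPRT) or 8.9 kb (mtDNA) fragments; damage assessed by loss of product on 1% agarose gel.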

Structure (SMILES) | IC50 (U937) | IC50 (KMS-12-BM) | IC50 (OPM-2) | IC50 (SK-MM-1) | IC50 (HG-3) | IC50 (SU-DHL-8) | IC50 (Toledo) | IC50 at 72 h [1] | IC50 at 72 h [2] | Intracellular concentration (in words) (MM.1S cells; MM.1S cells incubated with test compound 5, 15, 60 min, metabolites measured after treatment with the parent Example compound) | Extracellular concentration (in words) (MM.1S cells; media of MM.1S cells incubated with test compound 5, 15, 60 min, metabolites measured after treatment with the parent Example compound) | DNA damage on nuclear and mitochondrial DNA (PCR band) [3] | Intracellular hydrolysis / formation of metabolites (MM.1S cells; MM.1S cells, 5, 15, 60 min)
Cn1c(CCCC(=O)O)nc2cc(N(CCCl)CCCl)ccc21 [Bendamustine, bendamustine, reference compound] | 27.1 µM | 27.5 µM | 81.9 µM | 73.5 µM | 25.8 µM | 14.3 µM | 12.5 µM | > 599 µM | 15.8 µM | Low intracellular concentrations | quite high and decreased overtime | no or very minor effect on DNA damage | –
CCOC(=O)[C@H](CC(C)C)NC(=O)[C@@H](N)CCc1nc2cc(N(CCCl)CCCl)ccc2n1C [Example 1, Ethyl (2S)-2-[[(2S)-2-amino-4-[5-[bis(2-chloroethyl)amino]-1-methyl-benzimidazol-2-yl]butanoyl]amino]-4-methyl-pentanoate] | 0.0098 µM | 0.0079 µM | 0.173 µM | 0.0347 µM | 0.0257 µM | 0.0199 µM | 0.0045 µM | 1.07 µM | 0.0054 µM | – | – | strong DNA damaging effect | hydrolysis of Example compound 1 took place inside the cells
